Laboratory results taken from patent US10105365B2, “Solid antiviral dosage forms” (AbbVie Inc., priority 2014, dated 2018).

Columns and labels:
[1] = Sink Conditions dissolution testing of Formulation C5-12; type: physicochemical; conditions: N = 6
Experimental: The release profiles of Formulation C5-12 of Example 1 were evaluated in a Sink Conditions dissolution study. The study was conducted in 900 mL of dissolution medium using a standard USP dissolution Apparatus 2 (paddle) operating at 100 RPM at 37±0.5° C. The dissolution medium was a 0.05 M sodium phosphate buffer pH 6.8 with 15 mM cTAB as a surfactant.

[2] = Human pharmacokinetic study, Example 4 Arm II (single dose, crossover); type: in vivo; conditions: for AUC(0-inf): read-out: AUC∞, geometric mean; for concentration at 24 h: read-out: C24, geometric mean
Experimental: Formulation C5-12 and a second formulation were tested in Arm II of the study. Adult male and female subjects (N=30 for combined Arm I and Arm II studies) in general good health were selected to participate in the study according to the selection criteria. Subjects meeting the selection criteria were randomly assigned to one of the Regimen sequences as shown below in Table 4-A.
Study drug was administered as provided below in Table 4-B.
Each study regimen was taken orally with approximately 240 mL of water approximately 30 minutes after the start of standardized breakfast. Study regimens were administered orally in the morning on Study Day 1 of each period. For Regimen A the evening dose of the Single Tablet was taken orally with approximately 240 mL of water approximately 30 minutes after the start of the evening snack. Serial blood samples for pharmacokinetic analysis were collected 72 hours after dosing in each period.
The data presented in Tables 4-C through 4-G are preliminary data and are subject to database lock and final data verification.

[3] = Human pharmacokinetic study, Example 4 Arm III (14-day multiple dose, steady state); type: in vivo; conditions: three Formulation C5-12 tablets daily for 14 days, non-fasting
[4] = Human pharmacokinetic study, Example 5 Arm I (single dose, replicated crossover); type: in vivo; conditions: single dose, non-fasting; for AUC(0-inf) / Cmax: both sexes, human, in vivo, oral
Experimental: (§1) A Phase 1, non-fasting, open-label, two-arm, four-period, randomized, crossover study was conducted to compare and characterize the pharmacokinetics of (i) Triple Tablet when co-administered with Single Tablet, and (ii) Formulation C5-12 as discussed below. Part 1 was a single dose, two-treatment, randomized, four period, two sequence replicated crossover study with 88 subjects. Doses in the four periods were separated by at least 10 days. Part 2 was a multiple-dose, two-treatment, two period, randomized crossover study with 66 subjects. Dosing in each period was 14 days and doses in the two periods were separated by at least 10 days.
(§2) Adult male and female subjects in general good health were selected to participate in the study according to the selection criteria. Subjects meeting the selection criteria were randomly assigned to one of the sequences of Regimens A and B (four sequences for Arm I and two sequences for Arm II) as shown below in Table 5-A.
(§3) Study drug was administered as provided below in Table 5-B.
(§4) Each study regimen was taken orally with approximately 240 mL of water approximately 30 minutes after the start of standardized breakfast. Study regimens were administered orally in the morning on Study Day 1 of each period. Serial blood samples for pharmacokinetic analysis were collected 72 hours after dosing in each period.
Tables 5-C, 5-D, 5-E, and 5-F below report the Arm I pharmacokinetic data for Formulation C5-12 (separately reported for each of Compounds 1, 2, 3, and 4). Table 5-G presents the results of a relative bioavailability and 90% confidence interval analysis of the pharmacokinetic data for Formulation C5-12 relative to the reference regimen. The data presented in Tables 5-C through 5-G are preliminary data and are subject to database lock and final data verification by the statistician.

[5] = Human pharmacokinetic study, Example 5 Arm II (multiple dose, crossover); type: in vivo; conditions: for AUC: read-out: AUC24, geometric mean; for concentration at 24 h: read-out: C24, geometric mean
Experimental: as §1, §2, §3, §4

[6] = type: physicochemical
Description: Moreover, hot melt extrusion, a method commonly used to prepare amorphous solid dispersions, often involves the use of high temperature to assist the formation of a melt that is composed of all components of the final solid dispersion.
This allows the preparation of smaller solid dosage forms (e.g., tablets) comprising all three drug substances.

[7] = Example 4 Arm II, single dose, non-fasting, Regimen E (C5-12): three Formulation C5-12 tablets in the morning, N = 13
[8] = both sexes, human, blood, oral, 3 Formulation C5-12 tablets, Example 4 Arm II, single dose, non-fasting, Regimen E (C5-12): three Formulation C5-12 tablets in the morning, N = 13
[9] = both sexes, human, blood, oral, Example 4 Arm II, single dose, non-fasting, Regimen A (reference regimen): two Triple Tablets + one Single Tablet morning, one Single Tablet evening, N = 13
[10] = Regimen A (C5-12): three film-coated Formulation C5-12 tablets, N = 172
[11] = Regimen B (reference regimen): two Triple Tablets + one Single Tablet morning, one Single Tablet evening, N = 171
[12] = Example 5 Arm II, multiple dose 14 days, non-fasting, Regimen B (reference regimen): two Triple Tablets + one Single Tablet morning, one Single Tablet evening, N = 63
[13] = both sexes, human, blood, oral, 3 film-coated Formulation C5-12 tablets daily, Example 5 Arm II, multiple dose 14 days, non-fasting, Regimen A (C5-12): three film-coated Formulation C5-12 tablets daily, N = 63
[14] = both sexes, human, blood, oral, Example 5 Arm II, multiple dose 14 days, non-fasting, Regimen B (reference regimen): two Triple Tablets + one Single Tablet morning, one Single Tablet evening, N = 63

For `CC(C)c1nc(CN(C)C(=O)N[C@H](C(=O)N[C@@H](Cc2ccccc2)C[C@H](O)[C@H](Cc2ccccc2)NC(=O)OCc2cncs2)C(C)C)cs1` [Compound 3, 1,3-thiazol-5-ylmethyl N-[(2S,3S,5S)-3-hydroxy-5-[(2S)-3-methyl-2-{[methyl({[2-(propan-2-yl)-1,3-thiazol-4-yl]methyl})carbamoyl]-amino}butanamido]-1,6-diphenylhexan-2-yl]carbamate, reference compound], the “% Released” value ([1]; 1 hour, 900 mL 0.05 M sodium phosphate buffer pH 6.8, 15 mM cTAB, USP Apparatus 2, 100 RPM, 37 °C) was 58%, the “% Released” value ([1]; 4 hours, pH 6.8 buffer, 15 mM cTAB) was 99% and the “% Released” value ([1]; 6 hours, pH 6.8 buffer, 15 mM cTAB) was 100%. For the same compound, the “% Released” value ([1]; 8 hours, pH 6.8 buffer, 15 mM cTAB) was 103%, the “% Released” value ([1]; 12 hours, pH 6.8 buffer, 15 mM cTAB) was 102% and the “% Released” value ([1]; 16 hours, pH 6.8 buffer, 15 mM cTAB) was 100%. The “Cmax, geometric mean” value ([2]; Example 4 Arm II, single dose, non-fasting, Regimen A (reference regimen): two Triple Tablets + one Single Tablet morning, one Single Tablet evening, N = 13) was 1170 ng/mL, the “AUCt, geometric mean” value [2, 7] was 8160 ng·h/mL and the “Cmax, geometric mean” value [2, 7] was 1160 ng/mL. The t1/2 [2, 7] was 4.2 h, the AUC(0-inf) [2, 8] was 8270 ng·h/mL and the concentration at 24 h [2, 8] was 38.8 ng/mL. The Tmax ([2]; both sexes, human, blood, oral, 3 Formulation C5-12 tablets, Example 4 Arm II, single dose, non-fasting, Regimen E (C5-12): three Formulation C5-12 tablets in the morning, N = 13, read-out: Tmax) was 4.9 h, the half-life [2, 9] was 4.9 h and the concentration at 24 h [2, 9] was 37 ng/mL. The AUC(0-t) ([2]; both sexes, human, in vivo, Example 4 Arm II, single dose, non-fasting, Regimen A (reference regimen): two Triple Tablets + one Single Tablet morning, one Single Tablet evening, N = 13, read-out: AUCt, geometric mean) was 7710 ng·h/mL, the AUC(0-inf) ([2]; both sexes, human, in vivo, Example 4 Arm II, single dose, non-fasting, Regimen A (reference regimen): two Triple Tablets + one Single Tablet morning, one Single Tablet evening, N = 13) was 7900 ng·h/mL and the “C24, arithmetic mean, % CV” value ([2]; both, human, in vivo, 24 h) was “(46.3, 62) ng/mL”. It also gave a Tmax ([3]; human, in vivo, oral, 3 Formulation C5-12 tablets daily, Day 1, N = 14) of 5.4 h, a concentration at 24 h ([3]; human, in vivo, oral, 3 Formulation C5-12 tablets daily, Day 1, N = 14, read-out: C24, geometric mean) of 34.7 ng/mL and a Tmax ([3]; human, in vivo, oral, 3 Formulation C5-12 tablets daily, Day 14, N = 14) of 4.7 h. The AUC ([3]; human, in vivo, oral, 3 Formulation C5-12 tablets daily, Day 14, N = 14, read-out: AUC24, geometric mean) was 10700 ng·h/mL, the concentration at 24 h ([3]; human, in vivo, oral, 3 Formulation C5-12 tablets daily, Day 14, N = 14, read-out: C24, geometric mean) was 40 ng/mL and the Cmax ([3]; human, in vivo, oral, 3 Formulation C5-12 tablets daily, Day 14, N = 14, read-out: Cmax, geometric mean) was 1430 ng/mL. For the same compound, the “AUC24, geometric mean” value ([3]; Day 1, N = 14) was 7230 ng·h/mL, the “Cmax, geometric mean” value ([3]; Day 1, N = 14) was 921 ng/mL and the t1/2 ([3]; Day 14, N = 14) was 4.0 h. It also gave a β ([3]; Day 14, N = 14) of 0.174 h⁻¹, an AUC(0-inf) ([4]; 3 film-coated Formulation C5-12 tablets, Regimen A (C5-12): three film-coated Formulation C5-12 tablets, N = 172, read-out: AUC∞, geometric mean) of 8090 ng·h/mL and a Cmax ([4]; 3 film-coated Formulation C5-12 tablets, Regimen A (C5-12): three film-coated Formulation C5-12 tablets, N = 172, read-out: Cmax, geometric mean) of 1130 ng/mL. The AUC(0-inf) ([4]; Regimen B (reference regimen): two Triple Tablets + one Single Tablet morning, one Single Tablet evening, N = 171, read-out: AUC∞, geometric mean) was 8750 ng·h/mL, the Cmax ([4]; Regimen B (reference regimen): two Triple Tablets + one Single Tablet morning, one Single Tablet evening, N = 171, read-out: Cmax, geometric mean) was 1430 ng/mL and the “AUCt, geometric mean” value [4, 10] was 7450 ng·h/mL. For the same compound, the “Tmax, first value (geometric mean)” value [4, 10] was 4.0 h, the t1/2 [4, 10] was 4.52 h and the “AUCt, geometric mean” value [4, 11] was 8610 ng·h/mL. For the same compound, the t1/2 [4, 11] was 4.47 h, the “Cmax, arithmetic mean, % CV” value [5, 12] was “(1800,44) ng/mL” and the “Cmax, geometric mean” value [5, 12] was 1680 ng/mL. It also gave a half-life [5, 13] of 4.6 h, an AUC [5, 13] of 8670 ng·h/mL and a concentration at 24 h [5, 13] of 36.2 ng/mL. The Cmax ([5]; both sexes, human, blood, oral, 3 film-coated Formulation C5-12 tablets daily, Example 5 Arm II, multiple dose 14 days, non-fasting, Regimen A (C5-12): three film-coated Formulation C5-12 tablets daily, N = 63, read-out: Cmax, geometric mean) was 1340 ng/mL, the AUC [5, 14] was 9580 ng·h/mL and the concentration at 24 h [5, 14] was 35.1 ng/mL. For the same compound, the “Cmax,ss lower than Cmax,ss for the reference regimen” value ([5]; both, human, in vivo, 14 days) was 21%, the “Exposures (C24,ss and AUC24,ss) versus the reference regimen” value ([5]; in vivo) was “bioequivalent” and the “Degradation in hot melt extrusion” value [6] was “well within the acceptable levels”. The “Temperature beyond which degradation can reach unacceptable levels” value [6] was greater than 140 °C.
